{"source": "patent US20140235601A1", "about": "“Use of Aromatase Inhibitor Or Estrogen Blocker For Increasing Spermatogenesis Or Testosterone Levels In Males” (priority 2011, published 2014)", "format_in_all_cases": "in vivo, human", "key": {"[1]": {"test_system": "married person with small very atrophic testicles", "experiment": "Clinical Example A: person with history of undescended testicles, impotence and infertility treated with Arimidex", "settings": "⅛ mg (0.125 mg) daily", "excerpt": "A married person with a history of undescended testicles that were surgically corrected […]. This person presented to the inventor with small very atrophic testicles, impotence (difficulty in erecting, only occasionally able to have successful intercourse only with PDE5 inhibitors) and an inability to conceive despite two years of unprotected sexual intercourse with their spouse.\nAll of this is a result of the improved testicular function that this relatively low dose of Arimidex provided for this patient."}, "[2]": {"test_system": "person with extremely small and atrophic testicles", "experiment": "Clinical Example B: person with low libido, erectile dysfunction and ejaculatory failure treated with Femara", "settings": "⅛ to ½ of a 2.5 mg tablet", "protocol": "A […] athletic and muscular […] complaining of low libido, erectile dysfunction and ejaculatory failure. Patient was needing to use Viagra in order to function sexually, and had no desire for sex. Sex hormones testosterone and estrogen were measured at prepubertal levels."}, "[3]": {"test_system": "person with testicular atrophy following pelvic radiation", "experiment": "Clinical Example C: person with testicular decline after pelvic radiation for prostate cancer treated with Letrazole", "settings": "1/40th of a 2.5 mg tablet daily", "excerpt": "A sexually active person with biopsy confirmed prostate cancer elects to treat their cancer with pelvic radiation. Following radiation there is a progressive decline in testosterone levels, combined with testicular atrophy and increasing erectile dysfunction."}}}
{"smiles": "CC(C)(C#N)c1cc(Cn2cncn2)cc(C(C)(C)C#N)c1", "note": "[Arimidex, Anastrozole]", "values": [{"measurement": "erectile function", "setting": "[1]", "value": "dramatic improvement"}, {"measurement": "fertility (ability to conceive)", "setting": "[1]", "value": "able to conceive and have a child"}, {"measurement": "sperm counts", "setting": "[1]", "value": "dramatic increase"}, {"measurement": "testicular function", "setting": "[1]", "value": "improved"}, {"measurement": "testosterone levels", "setting": "[1]", "value": "significant increase"}]}
{"smiles": "N#Cc1ccc(C(c2ccc(C#N)cc2)n2cncn2)cc1", "note": "[Femara, Letrozole]", "values": [{"measurement": "ejaculations during intercourse", "setting": "[2]", "value": "restoration"}, {"measurement": "erections", "setting": "[2]", "value": "improved"}, {"measurement": "sex drive", "setting": "[2]", "value": "restoration"}, {"measurement": "testicular function", "setting": "[2]", "value": "dramatic increase"}, {"measurement": "testosterone levels", "setting": "[2]", "value": "restored to the high supraphysiologic levels"}, {"measurement": "testicular function", "setting": "[3]", "value": "significant improvement"}, {"measurement": "testosterone levels", "setting": "[3]", "value": "dramatic rise"}]}
